Experimental data as given in ChEMBL document CHEMBL5634160, “Synthesis, biological evaluation and action mechanism of 7H-[1,2,4] triazolo [3,4-b] [1,3,4] thiadiazine-phenylhydrazone derivatives as α-glucosidase inhibitors” (Eur J Med Chem, 2023).

Biological target: Alpha-glucosidase (Saccharomyces cerevisiae S288c, UniProt P53341+P38158+P07265)
Assay: Inhibition of Saccharomyces cerevisiae alpha-glucosidase using nitrophenol-alpha-D-glucopyranoside (pNPG) as substrate incubated for 15 mins
Type: protein assay

COc1ccc(/C=N/Nc2nnc3n2N=C(c2ccccc2)CS3)cc1OC
IC50: 140.2 µM

COc1ccccc1/C=N/Nc1nnc2n1N=C(c1ccccc1)CS2
IC50: 114.9 µM
